Source: US11680086B2, “Lipopeptide for potently inhibiting HIV, derivative thereof, pharmaceutical composition thereof and use thereof” (Institute of Pathogen Biology, Chinese Academy of Medical …, priority 2017, dated 2023)
Peptide text beside a SMILES is read from it. * marks the point of attachment. Palmitoyl = CCCCCCCCCCCCCCCC(=O)*

Tests used:
[1] = target: N39 (NHR-derived polypeptide of gp41) (Human immunodeficiency virus type 1 group M subtype B, UniProt P04578); format: binding, HIV-1; conditions: 10 μM each, PBS pH 7.2
Protocol: (§1) The circular dichroism spectrophotometer was Jasco-815 by JASCO Inc., and the assay method was referred to the papers published by the inventors (see the References 18 and 30 listed in the Background Art). […] The N39 and an inhibitor were separately dissolved in a phosphate buffered saline (PBS) to prepare a PBS solution (pH 7.2) of a concentration of 20 μM. The N39 was mixed with an inhibitor at a volume ratio of 1:1 (final concentration of 10 μM for each), the mixed sample was placed at 37° C. for 30 minutes to fully react, and then the helix content and Tm value of the resultant complex were measured by the circular dichroism spectrophotometer. The scan wavelength range of the device was 195-260 nm with a wavelength interval of 1 nm, and the values measured by scanning for three times were averaged. Based on the CD signals, the interaction between the polypeptides and the helix content were determined. Then, the sample for CD signal measurement was transferred to the temperature scanning sample cell, the program of the CD device was set to temperature scanning with a detection wavelength of 220 nm and scanning range of 20-98° C., and the program scan was performed to obtain the curve of the CD signals vs temperature, based on which the Tm value was calculated. Based on the Tm value, the stability of the formed helical structure of the inhibitor and N39 was judged.

[2] = test system: SIV pseudoviruses SIVpbj and SIV239; test: inhibition of SIV pseudoviruses; format: cell-based
Protocol: (§2) The supernatant was discarded from the wells. […] Inhibition rate (%) and IC50 value were calculated.
(§3) In order to further reflect the antiviral advantages of the potent lipopeptides of the present invention, their inhibitory activity against HIV-2 and SIV was determined in the example. The methods of antiviral activity assays used were described in the literatures published by the present inventors (see the References 13 and 30 listed in the Background Art). The molecular cloning plasmid pROD of the HIV-2 strain ROD (HIV-2ROD) was kindly provided by Professor Nuno Taveira from the University of Lisbon, Portugal, and the plasmids expressing the SIV strain SIVpbj (SIVPBJ) and SIV239 envelope proteins (pSIVpbj-Env and pSIV239, respectively) were kindly provided by Professor Xu Jianqing from the Fudan University. The preparation of the infectious ROD was the same as that of the infectious JRCSF in the above section 2.1, and the pseudoviruses SIVpbj and SIV239 were prepared by a method same as that described in the above Examples 2 and 3.

[3] = circular dichroism secondary structure analysis of the inhibitors themselves; format: physicochemical; conditions: 20 μM and 40 μM in PBS
Protocol: as §1
For easy analysis, the α-helix content and the Tm value of the inhibitors were measured at concentrations of 10 μM, 20 μM, and 40 μM (PBS solution), respectively.

[4] = test system: NL4-3 pseudovirus carrying T-20 resistance mutation site of NHR; test: inhibition of T-20 resistant strains; format: cell-based, HIV-1; conditions: strains with single or double mutations
[5] = test system: HIV-1 strain NL4-3 pseudovirus (D36G mutant); format: cell-based
Protocol: as §2

[6] = test system: 35 HIV-1 pseudoviruses (subtypes A, B, B', C, G, A/C, A/E, B/C); conditions: for IC50: read-out: average IC50 for inhibition of various types of HIV-1 pseudoviruses, average over 35 pseudoviruses; for inhibitory activity against different subtypes of HIV-1 as folds of T-20: relative to T-20, from average IC50
Text: HIV-1 pseudovirus-mediated cell entry inhibition assay: basic steps included: (1) Preparation of HIV-1 pseudovirus: the 293T cells were co-transfected with a plasmid expressing the envelope protein (Env) of HIV-1 strain NL4-3 (i.e., a recombinant expression plasmid obtained by inserting the gene encoding the envelope protein (ENV) of the D36G mutant of the HIV-1 strain NL4-3 in the Table 2 of the Reference 14 listed in the Background Art into the vector pcDNA3.1(−)) and the HIV-1 backbone plasmid pSG3Δenv (provided by the AIDS Reagent Program of National Institutes of Health (NIH), catalog number: 11051) by using a cell transfection reagent, incubated in a cell incubator of 37° C. and 5% CO2 for 6 hours, and then the medium was changed, and the cells were further incubated for 48 hours. The cell culture supernatant containing pseudovirus particles was pipetted and filtered with a 0.45 μm filter to collect the supernatant, then 20% fetal bovine serum (FBS) was added thereto, the final solution was transferred to a polypropylene tube, and stored at −80° C. for ready for use or directly subjected to virus titration. (2) Titration of HIV-1 pseudovirus: the viruses were diluted by 5 folds in a 96-well plate, and 4 replicate wells with 8 gradients were set to a final volume of 100 microliters. The TZM-b1 cells were trypsinized and counted, and the cells were diluted to 1×10^5 cells/ml with DMEM complete medium; 100 μl of cells dilution (containing 15 μg/ml DEAE-dextran) per well were added and cultured at 37° C. and 5% CO2 for 48 hours. The 96-well plate was then taken from the cell culture incubator. The supernatant was discarded from the wells. To each well, 30 μl of a cell lysate was added, and after 10 minutes, 100 μl of a luciferase detection reagent was added. 100 μl of liquid was pipetted from each well and added to a corresponding 96-well white plate, and the luminescence values were read by a microplate photometer. The virus titer was calculated by the Reed-Muench method. (3) Antiviral activity assay: the test substance was dissolved in DMSO and diluted with a cell culture solution by 3 folds, and placed in a 96-well plate at a final volume of […]. 50 μl of a DMEM medium was used in place of the test substance as a negative control. To each well, 100 μl of TZM-b1 target cells solution (containing 15 μg/ml DEAE-dextran) at a concentration of 1×10^5 cells/ml was added, and then 50 μl (corresponding to 100 TCID50 per well) of the HIV-1 pseudovirus obtained above was added. After incubation at 37° C. and 5% CO2 for 48 hours, the relative light units (RLU) of each well were determined by using a luciferase detection reagent (Promega). Inhibition rate (%) and IC50 value were calculated.
Among them, the A, B and C subtypes were the main viruses causing AIDS epidemic in the world, while B/C and A/E recombinant viruses were the main viruses in China. […] Among the Env expression plasmids used for the preparation of pseudoviral, except that the Env expression plasmids used for preparation of PVO, Du156 and CAP 210.2.00.E8 were obtained from the AIDS Reagent Program of NIH in the United states, other plasmids were preserved by the laboratory of Prof. He Yuxian, Institute of Pathogen Biology, Chinese Academy of Medical Sciences, please see the References 13, 14 and 18 listed in the Background Art and articles of Chong et al. (Chong H, Yao X, Zhang C, Cai L, Cui S, Wang Y, He Y. Biophysical property and broad anti-HIV activity of Albuvirtide, a 3-maleimimidoproprotionic acid-modified peptide fusion inhibitor. PLoS One, 2012; 7 (3): e 32599). The preparation of the pseudovirus and the antiviral assay were the same as those in Example 2.1 of Example 2 (HIV-1 pseudovirus-mediated cell entry inhibition assay).

[7] = test system: HIV-1 strain JRCSF; format: cell-based
Protocol: (§4) Inhibition rate (%) and IC50 value were calculated.

[8] = test system: HXB2-mediated cell fusion (HL2/3 effector cells, TZM-b1 target cells); format: cell-based, HIV-1
Protocol: HIV-1 mediated cell fusion inhibition assay: the effector cells (HL2/3 cells) and target cells (TZM-b1 cells) were provided by the AIDS Reagent Program of National Institutes of Health (NIH) (catalog numbers: 1294 and 8129, respectively). The both cells were adherent cells and were cultured in a DMEM cell culture medium containing ampicillin/streptomycin double antibiotics and 10% fetal bovine serum (FBS). The TZM-b1 was first added to a 96-well cell culture plate (1×10^4 cells/well), and cultured overnight at 37° C. and 5% CO2. The test substance was diluted with the DMEM cell culture medium by 3 folds and mixed with HL2/3 effector cells (3×10^4 cells/well), then added to the TZM-b1 target cells, and further cultured for 6 hours to fully fuse. The activity of luciferase (relative fluorescence units, RLU) was then determined using a luciferase reporter gene kit from Promega company according to the instructions. The inhibition rate of each sample at each concentration was calculated, and the half effective inhibitory concentration (IC50 value) was calculated using GraphPad Prism Software 2.01.

[9] = test system: HIV-2 strain ROD (infectious); test: inhibition of HIV-2; format: cell-based; conditions: HIV-2 ROD
Protocol: as §4, §3

N39 (NHR-derived polypeptide of gp41), sequence (P04578 528-566): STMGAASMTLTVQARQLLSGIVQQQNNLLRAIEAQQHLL

| SMILES | Tm value of the complex with N39 [1] | helix content of the complex with N39 [1] | inhibitory activity against SIV (in words) [2] | secondary structure of the inhibitor itself (in words) [3] | inhibitory activity against T-20 resistant strains (in words) [4] | inhibitory activity as folds of that of T-20 ([5]; NL4-3 pseudovirus entry, relative to T-20) | IC50 [6] | inhibitory activity against different subtypes of HIV-1 as folds of T-20 [6] | inhibitory activity as folds of that of T-20 ([7]; JRCSF replication, relative to T-20) | inhibitory activity as folds of that of T-20 ([8]; HXB2-mediated cell fusion, relative to T-20) | inhibitory activity against HIV-2 (in words) [9] | decrease of inhibitory activity against NL4-3 infection ([5]; compared with template LP-52) | decrease of inhibitory activity against JRCSF infection ([7]; compared with template LP-52) | inhibitory activity against HXB2-cell fusion (in words) ([8]; compared with template LP-52) |
| --- | --- | --- | --- | --- | --- | --- | --- | --- | --- | --- | --- | --- | --- | --- |
| CCCCCCCCCCCCCCCC(=O)NCCCC[C@H](NC(=O)[C@H](CC(=O)O)NC(=O)[C@H](CC(C)C)NC(=O)[C@H](CCC(=O)O)NC(=O)[C@H](CC(C)C)NC(=O)[C@H](CC(C)C)NC(=O)[C@H](CCC(=O)O)NC(=O)[C@H](CCC(N)=O)NC(=O)[C@H](CCC(=O)O)NC(=O)[C@H](CC(N)=O)NC(=O)[C@H](CCCCN)NC(=O)[C@H](CCC(=O)O)NC(=O)[C@H](CCC(N)=O)NC(=O)[C@H](CCC(N)=O)NC(=O)[C@H](CC(N)=O)NC(=O)[C@H](CCC(N)=O)NC(=O)[C@H](CO)NC(=O)[C@H](CCC(=O)O)NC(=O)[C@H](CCC(=O)O)NC(=O)[C@@H](NC(=O)[C@H](CC(C)C)NC(=O)[C@H](CO)NC(=O)[C@H](Cc1c[nH]cn1)NC(=O)[C@@H](NC(=O)[C@H](CC(C)C)NC(=O)[C@H](CO)NC(=O)[C@@H](NC(=O)[C@H](Cc1ccc(O)cc1)NC(C)=O)[C@@H](C)O)[C@@H](C)CC)[C@@H](C)CC)C(N)=O [LP-40] (Ac-YTSLIHSLIEESQNQQEKNEQELLELDK(Palmitoyl)-NH2) | 51.3 °C | 57.7% | only slightly improved | small amount of helical structure | had been improved | ~21 folds | 6.37 nM | 7 folds | ~18 folds | about 59 folds | only slightly improved |  |  |  |
| CCCCCCCCCCCCCCCC(=O)NCCCC[C@H](NC(=O)[C@H](CCCCN)NC(=O)[C@H](CC(C)C)NC(=O)[C@H](CCC(=O)O)NC(=O)[C@H](CCC(=O)O)NC(=O)[C@H](CCC(=O)O)NC(=O)[C@H](CC(N)=O)NC(=O)[C@H](CCCCN)NC(=O)[C@H](CCCCN)NC(=O)[C@H](CCC(N)=O)NC(=O)[C@H](CCC(N)=O)NC(=O)[C@H](CCC(=O)O)NC(=O)[C@H](CCC(=O)O)NC(=O)[C@H](C)NC(=O)[C@H](CCCCN)NC(=O)[C@H](CCCCN)NC(=O)[C@H](CC(C)C)NC(=O)[C@H](CC(C)C)NC(=O)[C@H](CCC(=O)O)NC(=O)[C@H](CCC(=O)O)NC(=O)[C@@H](NC(=O)[C@H](CCCCN)NC(=O)[C@H](CCC(N)=O)NC(=O)[C@H](CCC(=O)O)NC(=O)[C@H](Cc1c[nH]c2ccccc12)NC(C)=O)[C@@H](C)CC)C(N)=O [LP-55] (Ac-WEQKIEELLKKAEEQQKKNEEELKK(Palmitoyl)-NH2) | 63.1 °C |  | significantly affected the activity |  | much lower active against T-20 resistant mutant strains than the LP-52 and LP-80 |  | 0.034 nM | 1218 folds |  |  | significantly affected the activity | about 2 fold | about 2 fold | essentially unchanged |
| CCCCCCCCCCCCCCCC(=O)NCCCC[C@H](NC(=O)[C@H](CCC(=O)O)NC(=O)[C@H](CC(C)C)NC(=O)[C@H](CCCCN)NC(=O)[C@H](CCCCN)NC(=O)[C@H](CC(C)C)NC(=O)[C@H](CCC(=O)O)NC(=O)[C@H](CCC(=O)O)NC(=O)[C@H](CCC(=O)O)NC(=O)[C@H](CC(N)=O)NC(=O)[C@H](CCCCN)NC(=O)[C@H](CCCCN)NC(=O)[C@H](CCC(N)=O)NC(=O)[C@H](CCC(N)=O)NC(=O)[C@H](CCC(=O)O)NC(=O)[C@H](CCC(=O)O)NC(=O)[C@H](C)NC(=O)[C@H](CCCCN)NC(=O)[C@H](CCCCN)NC(=O)[C@H](CC(C)C)NC(=O)[C@H](CC(C)C)NC(=O)[C@H](CCC(=O)O)NC(=O)[C@H](CCC(=O)O)NC(=O)[C@@H](NC(C)=O)[C@@H](C)CC)C(N)=O [LP-65] (Ac-IEELLKKAEEQQKKNEEELKKLEK(Palmitoyl)-NH2) | 72.1 °C | 63% | extremely potent inhibitory activity |  | much lower active against T-20 resistant mutant strains than the LP-52 and LP-80 |  | 0.052 nM | 796 folds |  |  | extremely potent inhibitory activity |  |  |  |
